Measurements: US8193377B2, “(−)-epigallocatechin gallate derivatives for inhibiting proteasome” (The Hong Kong Polytechnic University, priority 2004, dated 2012)

How the values were obtained:
LNCaP cells [1] = test: Soft agar colony formation assay; format: cell-based, human; conditions: 25 μM once at plating, 21 days
VA-13 cells [2] = test: Immunostaining of apoptotic cells with anti-cleaved PARP-FITC; format: cell-based, human; conditions: 25 μM, 24 h
Description: Immunostaining of apoptotic cells was performed by addition of a FITC-conjugated polyclonal antibody that recognizes cleaved poly(ADP-ribose) polymerase (PARP) and visualized on an Axiovert 2 5 (Zeiss; Thornwood, N.Y.) microscope. Cells were grown to about 80% confluency in 60 mm dishes. VA-13 cells were then treated with VP-16, 2, or 2a (25 μM) for 24 h. Following treatment, both suspension and adhering cells were collected and washed twice in PBS pH 7.4. The cells were washed between all steps listed below and all washes are 1 min duration with PBS. Cells were then fixed in ice-cold 70% ethanol, permeabilized in 0.1% Triton-X-100 and blocked for 30 min in 1% bovine serum albumin (BSA) at room temperature. Incubation with the primary FITC-conjugated-p85/PARP antibody was for 30 min at 4° C. in the dark with mild shaking. Cell suspension was then transferred to glass slides in the presence of Vector Shield mounting medium with DAPI. Images were captured using AxioVision 4.1 and adjusted using Adobe Photoshop 6.0 software. Cell death was quantified by counting the number of apoptotic cells over the total number of cells in the same field. Data are mean of duplicate experiments ±SD.
(§1) It has been shown that proteasome inhibition can induce apoptosis in a wide variety of cancer cells, but not in normal, non-transformed cells (An B et al). Jurkat T cells are treated with 25 μM of each of the selected polyphenols and their protected analogs for 24 h to investigate their abilities to induce apoptotic cell death. […] The unprotected 2 induced much less apoptosis (21%), while 25 μM VP-16, used as a positive control, induced 92% apoptosis (FIGS. 10C and 10D). Counterstain with DAPI, which binds to the minor groove in A-T rich regions of DNA, was decreased drastically in apoptotic cells (FIG. 10C), consistent with DNA fragmentation in late stage apoptosis.

Jurkat T cells [3] = test: Trypan blue cell death assay in Jurkat T cells; format: cell-based, human; conditions: 25 μM, 24 h
VA-13 cells [4] = test: Nuclear staining (Hoechst) for apoptotic morphology, VA-13; format: cell-based, human; conditions: 25 μM, 24 h
Description: After each drug treatment, both detached and attached VA-13 and WI-38 cells were stained Hoechst 33342 to assess for apoptosis. Briefly, cells were washed 2× in PBS, fixed for 1 h with 70% ethanol at 4° C., washed 3× in PBS, and stained with […] Hoechst for 30 min in the dark at room temperature. Detached cells were plated on a slide and attached cells were visualized on the plate with a fluorescent microscope at 10× or 40× resolution (Zeiss, Germany). Digital Scientific obtained images with AxioVision 4.1 and adjusted using Adobe Photoshop 6.0.
Next, apoptotic nuclear morphology is examined after treatment with natural (−)-EGCG, 2, and 2a (FIG. 12B). […] A comparison among all the protected analogs was then performed using 25 μM for 24 h. […] All of the protected analogs induced apoptosis in transformed (VA-13), but not normal (WI-38) cells (FIGS. 12B and 12C).

Jurkat T cells [5] = test: Western blot for PARP cleavage in Jurkat T cells; format: cell-based, human; conditions: 25 μM, 24 h
Description: (§2) Whole cells extracts were prepared as described previously (An B, Goldfarb R H, Siman R, Dou Q P. Novel dipeptidyl proteasome inhibitors overcome Bc1-2 protective function and selectively accumulate the cyclin-dependent kinase inhibitor p27 and induce apoptosis in transformed, but not normal, human fibroblasts. Cell Death Differ 1998; 5: 1062-75.). Analysis of Bax, IKBa, p27, PAW, and ubiquitinated protein expression were performed using monoclonal or polyclonal antibodies according to previously reported protocols (An B et. al.).
as §1
To determine if the cell death observed (FIG. 16) was due to the induction of apoptosis, a similar experiment was performed in Jurkat T cells, followed by measurement of caspase-3 activation and PARP cleavage.

YT cells = test: Western blot in non-transformed natural killer YT cells compared with Jurkat T cells; format: cell-based, human; conditions: 25 μM, 24 h
[6] = system: ubiquitin-conjugated proteins in LNCaP cells; test: Western blot for ubiquitin-conjugated proteins in LNCaP cells; format: cell-based, human; conditions: 25 μM, 24 h
Description: as §2
To determine if acetate-protected analogs are potent proteasome inhibitors in other cancer cell systems, prostate cancer LNCaP cells were treated for 24 h with 25 μM of (−)-EGCG, 1, 2a, or 3a, with DMSO as a control.

[7] = biological target: T1, proteasome in VA-13 cells (Homo sapiens, UniProt P28074); test: Chymotrypsin-like proteasome activity in intact VA-13 cells; format: cell-based; conditions: 25 μM, 24 h
T1 construct: endogenous in cells; host or cells: VA-13 (SV40-transformed human fibroblasts)
Description: VA-13 or WI-38 cells were grown in 24 well plates (2 ml/well) to 70-80% confluency, followed by 24 h treatment with […] (−)-EGCG, 2, or 2a. […] Suc-Leu-Leu-Val-Tyr-AMC substrate was then added for 2.5 h at 37° C. and the chyrnotrypsin-like activity was measured as described above. Alternatively, cells were treated with each compound at 25 μM for 4 or 24 h, and harvested and lysed. Suc-Leu-Leu-Val-Tyr-AMC (40 μM) was then incubated with the prepared cell lysates for 2.5 h and the chymotrypsin-like activity was measured as described above.
The ability to induce apoptosis in tumor cells, but not normal cells is an important measure for novel anti-cancer drugs. To determine whether the protected compounds also affect normal cells, both VA-13 and WI-38 cells were treated with 25 μM of (−)-EGCG, 2, or 2a for 24 h and examined proteasome activity, nuclear morphological changes, and detachment. A differential decrease was found in the chyrnotrypsin-like activity of the proteasome in VA-13 cells over normal WI-38 cells (FIG. 12A). […] Conversely, the proteasome activity in WI-38 cells was decreased by only −5% with all three polyphenol treatments.

[8] = system: ubiquitinated proteins, Bax, p27, IκBα in Jurkat T cells; test: Western blot for ubiquitinated proteins and proteasome targets (Bax, p27, IκBα) in Jurkat T cells; format: cell-based, human; conditions: 25 μM, 24 h
Description: as §2
To determine what effects the synthetic tea analogs had on the proteasome in vivo, Jurkat cells were treated with 25 μM of each synthetic compound for either 4 or 24 h, with (−)-EGCG as a control (FIGS. 9A and 9B). […] This is consistent with the idea that protected analogs are potent inhibitors of the proteasome at an earlier time point and that after 24 h of treatment the ubiquitinated proteins are being depleted by deubiquitinating enzymes. […] The putative ubiquitinated IκBα band is still found in cells treated with 2a, 3a, and 4a (FIG. 9B, Lanes 9, 5, 7). The presumed ubiquinated IκBα band is now absent in the 24 h treatment, possibly due to deubiquitination (FIG. 9B). Actin was used as a loading control in this experiment.
The pro-apoptotic protein Bax and the cyclin-dependent kinase inhibitor p27 are natural proteasome targets. If the peracetate-protected polyphenols inhibit the intact proteasome activity, we would expect accumulation of Bax and p27 in these cells. To test this idea, Jurkat T cells were treated with both protected and unprotected compounds and lysates were analyzed by Western blot using specific antibodies to Bax and p27 (FIG. 15). After 4 h of treatment, the peracetate-protected analogs 24* and 19*, but not their unprotected analogs, were able to increase accumulation of both Bax (by 3- and 2.5-fold, respectively) and p27 (6- and 11-fold, respectively) (FIG. 15A). After 24 h treatment, Bax levels were increased in cells treated with all of the peracetate-protected compounds (13-, 12-, 40- and 36-fold, respectively, by 24*, 19*, 21* and 23*).

LNCaP cells [9] = test: Apoptotic morphological changes, phase contrast; format: cell-based, human; conditions: 25 μM, 24 h
MCF-7 cells = test: MTT assay; format: cell-based, human; conditions: 24 h
Description: MTT was used to determine effects of polyphenols on overall proliferation of tumor cells. Human breast MCF-7 cells were plated in a 96 well plate and grown to 70-80% confluency, followed by addition of analogs for 24 h. MTT (1 mg/ml) in PBS was then added to wells and incubated at 37° C. for 4 hours to allow for complete cleavage of the tetrazolium salt by metabolically active cells. Next, the MTT was removed and 100 μl of DMSO was added and colorimetric analysis performed using a multilabel plate reader at 560 nm (Victor^3; Perkin Elmer). Absorbance values plotted are the mean from triplicate experiments.
Treated breast cancer (MCF-7) cells were then treated with 5 or 25 μM of peracetate-protected analogs for 24 h, followed by MTT analysis to determine their effects on cell proliferation. Compound 1 at 25 μM inhibited cellular proliferation by 40% (FIG. 11A).

SMILES | colony formation in soft agar (LNCaP cells [1]) | apoptotic cells (p85 cleaved PARP) (VA-13 cells [2]) [%] | cell death (trypan blue) (Jurkat T cells [3]) [%] | apoptotic nuclear morphology (VA-13 cells [4]) | apoptosis-specific PARP cleavage (Jurkat T cells [5]) | apoptosis (PARP cleavage), Jurkat T versus YT cells (YT cells) | ubiquitin-conjugated proteins [6] | decrease in proteasome chymotrypsin-like activity [7] [%] | accumulation of p27 [8] | apoptotic morphological changes (LNCaP cells [9]) | inhibition of cellular proliferation (MCF-7 cells; 5 μM) [%] | inhibition of cellular proliferation (MCF-7 cells; 25 μM) [%]
CC(=O)Oc1cccc(C(=O)O[C@@H]2Cc3c(OC(C)=O)cc(OC(C)=O)cc3O[C@H]2c2cc(OC(C)=O)c(OC(C)=O)c(OC(C)=O)c2)c1 (relative stereo) [Compound 2a, (2S*,3R*)-trans-5,7-Bis(acetyloxy)-2-[3,4,5-tris(acetyloxy)phenyl]chroman-3-yl 3-acetyloxybenzoate] | most potent inhibitors of colony formation | 73 | 99 | markedly induced apoptosis | induced apoptosis-specific PARP cleavage | only Jurkat cells underwent apoptosis | greatest increase | 92 | Accumulation of p27 | dramatic round-up, detachment, and cellular fragmentation | 50 | 70
CC(=O)Oc1ccc(C(=O)O[C@@H]2Cc3c(OC(C)=O)cc(OC(C)=O)cc3O[C@H]2c2cc(OC(C)=O)c(OC(C)=O)c(OC(C)=O)c2)cc1 (relative stereo) [Compound 3a, (2S*,3R*)-trans-5,7-Bis(acetyloxy)-2-[3,4,5-tris(acetyloxy)phenyl]chroman-3-yl 4-(acetyloxy)benzoate] |  |  | 57 |  | induced apoptosis-specific PARP cleavage |  | greatest increase |  | Accumulation of p27 | dramatic round-up, detachment, and cellular fragmentation | 50 | 70
